The values below are quoted from earlier work in PubChem BioAssay AID1259409 (Chemical Carcinogenesis Research Information System (CCRIS), 2018).

Where “and” joins values, the source holds several entries; their conditions need not be identical. Equal values may be shown once. Where a SMILES comes first, the peptide text is derived from it. The star is where a group is joined. Leuψ(CH2N)ThzNH2 = CC(C)C[C@@H](CN1CSC[C@H]1C(N)=O)N*; Hydrocinnamoyl = O=C(CCc1ccccc1)*

The series deals with rodent chemically induced tumor inhibition, incidence and multiplicity. Description: CCRIS tumor inhibitor studies.

In the case of `CC(=O)Oc1ccccc1C(=O)Oc1ccccc1C(=O)O`, the “tumour outcome (control, treated, inhibition, significance)” value runs as follows: (Carcinogen: NONE USED, Dose [Inhibitor]: 0, 0.1% IN CHOLINE-DEFICIENT DIET FOR 30 WK (STUDY DURATION: 30 WK), Route [Inhibitor]: ORAL, Species: RAT, Strain/Sex: F344/MALE, Target Tissue: Type of Lesion: LIVER: NEOPLASTIC NODULE, Promoter: NONE USED) 8/8 (100%), 10/10 (100%), 0%, not significant and 4/4 (100%), 3/3 (100%), 0%, not significant; (Carcinogen: NONE USED, Dose [Inhibitor]: 0, 0.2% IN CHOLINE-DEFICIENT DIET FOR 30 WK (STUDY DURATION: 30 WK), Route [Inhibitor]: ORAL, Species: RAT, Strain/Sex: F344/MALE, Target Tissue: Type of Lesion: LIVER: NEOPLASTIC NODULE, Promoter: NONE USED) 8/8 (100%), 4/11 (36%), 64%, p<0.05 and 4/4 (100%), 3/3 (100%), 0%, not significant; (Carcinogen: NONE USED, Dose [Inhibitor]: 0, 0.4% IN CHOLINE-DEFICIENT DIET FOR 30 WK (STUDY DURATION: 30 WK), Route [Inhibitor]: ORAL, Species: RAT, Strain/Sex: F344/MALE, Target Tissue: Type of Lesion: LIVER: NEOPLASTIC NODULE, Promoter: NONE USED) 4/4 (100%), 0/4 (0%), 100%, p<0.05; (Carcinogen: NONE USED, Dose [Inhibitor]: 0, 0.8% IN CHOLINE-DEFICIENT DIET FOR 30 WK (STUDY DURATION: 30 WK), Route [Inhibitor]: ORAL, Species: RAT, Strain/Sex: F344/MALE, Target Tissue: Type of Lesion: LIVER: NEOPLASTIC NODULE, Promoter: NONE USED) 4/4 (100%), 0/3 (0%), 100%, p<0.05.

With `N[C@@H](CS)C(=O)O`, the “tumour outcome (control, treated, inhibition, significance)” value runs as follows: (Carcinogen: 7,12-DIMETHYLBENZ[A]ANTHRACENE, 57-97-6, Dose [Inhibitor]: 0.03 NMOL/G DIET DAILY FOR 17 WK STARTING 1 WK PRIOR TO CARCINOGEN TREATMENT AND CONTINUING THROUGH THE END OF THE STUDY, Route [Inhibitor]: ORAL, Species: RAT, Strain/Sex: SPRAGUE-DAWLEY/FEMALE, Target Tissue: Type of Lesion: MAMMARY GLAND: TUMOR, Dose [Carcinogen]: 12 MG IN 1 ML OLIVE OIL ONCE, Promoter: NONE USED) 59%, 61%, -3%, not significant; (Carcinogen: TRANS-5-AMINO-3-[2-(5-NITRO-2-FURYL)VINYL]-1,2,4-OXADIAZOLE;SQL8506, 28754-68-9, Carcinogen: TRANS-5-AMINO-3-[2-(5-NITRO-2-FURYL)VINYL]-1,2,4-OXADIAZOLE;SQL8506, 28754-68-9, Dose [Inhibitor]: 100 MG/KG 16 HR BEFORE THE 1ST CARCINOGEN DOSE FOLLOWED BY ADDITIONAL DOSES IMMEDIATELY BEFORE EACH DOSE OF CARCINOGEN (, Route [Inhibitor]: INTRAPERITONEAL, Species: MOUSE, Strain/Sex: CD-1/FEMALE, Target Tissue: Type of Lesion: HEMATOPOIETIC SYSTEM: MYELOID LEUKEMIA, Dose [Carcinogen]: 1 G/KG 2/D FOR 5 D EVERY 4 WK, Promoter: NONE USED) 7/137 (5%), 1/32 (3%), 40%, not calculated; (Carcinogen: TRANS-5-AMINO-3-[2-(5-NITRO-2-FURYL)VINYL]-1,2,4-OXADIAZOLE;SQL8506, 28754-68-9, Carcinogen: TRANS-5-AMINO-3-[2-(5-NITRO-2-FURYL)VINYL]-1,2,4-OXADIAZOLE;SQL8506, 28754-68-9, Dose [Inhibitor]: 100 MG/KG 16 HR BEFORE THE 1ST CARCINOGEN DOSE FOLLOWED BY ADDITIONAL DOSES IMMEDIATELY BEFORE EACH DOSE OF CARCINOGEN (, Route [Inhibitor]: INTRAPERITONEAL, Species: MOUSE, Strain/Sex: CD-1/FEMALE, Target Tissue: Type of Lesion: LYMPHOID TISSUE: NONTHYMIC LYMPHOMA, Dose [Carcinogen]: 1 G/KG 2/D FOR 5 D EVERY 4 WK, Promoter: NONE USED) 8/137 (6%), 1/32 (3%), 50%, not calculated; (Carcinogen: TRANS-5-AMINO-3-[2-(5-NITRO-2-FURYL)VINYL]-1,2,4-OXADIAZOLE;SQL8506, 28754-68-9, Carcinogen: TRANS-5-AMINO-3-[2-(5-NITRO-2-FURYL)VINYL]-1,2,4-OXADIAZOLE;SQL8506, 28754-68-9, Dose [Inhibitor]: 100 MG/KG 16 HR BEFORE THE 1ST CARCINOGEN DOSE FOLLOWED BY ADDITIONAL DOSES IMMEDIATELY BEFORE EACH DOSE OF CARCINOGEN (, Route [Inhibitor]: INTRAPERITONEAL, Species: MOUSE, Strain/Sex: CD-1/FEMALE, Target Tissue: Type of Lesion: LYMPHOID TISSUE: THYMIC LYMPHOMA, Dose [Carcinogen]: 1 G/KG 2/D FOR 5 D EVERY 4 WK, Promoter: NONE USED) 22/137 (16%), 5/32 (16%), 0%, not calculated; (Carcinogen: TRANS-5-AMINO-3-[2-(5-NITRO-2-FURYL)VINYL]-1,2,4-OXADIAZOLE;SQL8506, 28754-68-9, Carcinogen: TRANS-5-AMINO-3-[2-(5-NITRO-2-FURYL)VINYL]-1,2,4-OXADIAZOLE;SQL8506, 28754-68-9, Dose [Inhibitor]: 100 MG/KG 16 HR BEFORE THE 1ST CARCINOGEN DOSE FOLLOWED BY ADDITIONAL DOSES IMMEDIATELY BEFORE EACH DOSE OF CARCINOGEN (, Route [Inhibitor]: INTRAPERITONEAL, Species: MOUSE, Strain/Sex: CD-1/FEMALE, Target Tissue: Type of Lesion: STOMACH: SQUAMOUS CARCINOMA, Dose [Carcinogen]: 1 G/KG 2/D FOR 5 D EVERY 4 WK, Promoter: NONE USED) 60/137 (44%), 9/32 (28%), 36%, not calculated.

On to `CCCCCCCCCCCC(=O)OCC(COC(=O)CCCCCCCCCCC)OC(=O)CCCCCCCCCCC`, for which, where the note is “Carcinogen: DIMETHYLBENZANTHRACENE, 57-97-6, Dose [Inhibitor]: APPLIED 3 MIN POST EACH PROMOTER DOSE 3/WK FOR 20 WK BEGINNING 3 D POST CARCINOGEN DOSE (STUDY DURATION: 20 WK), Route [Inhibitor]: DERMAL, Species: MOUSE, Strain/Sex: SWISS/?, Target Tissue: Type of Lesion: SKIN: TUMOR, Dose [Carcinogen]: 250 UG/0.25 ML ONCE, Promoter: CROTON OIL, 8001-28-3”, the “tumour outcome (control, treated, inhibition, significance)” value is listed as 100%, 0%, 100%, not calculated.

Turning to `Cc1cnc(NC(=O)C2=C(O)c3ccccc3S(=O)(=O)N2C)s1`, the “tumour outcome (control, treated, inhibition, significance)” value (Carcinogen: N-NITROSOBIS(2-OXOPROPYL)AMINE [60599-38-4], Dose [Inhibitor]: 5 MG/KG EACH WEEKDAY OVER A PERIOD OF 16 WKS STARTING AT 4 WKS (STUDY DURATION: 20 WKS), Route [Inhibitor]: ORAL (GAVAGE?), Species: HAMSTER, Strain/Sex: SYRIAN GOLDEN/FEMALE, Target Tissue: Type of Lesion: GALL BLADDER: CARCINOMA IN SITU, Dose [Carcinogen]: 10 MG/KG BW AT WKS 4, 6, 8, 10, 12, 14, 16, 18 (8 DOSES) (STUDY DURATION: 20 WKS)) is given as 4/11 (36%), 0/11 (0%), 100%, not significant.

On to `O=S(=O)(O)c1ccccc1`, for which, under “Carcinogen: BETA-PROPIOLACTONE, 57-57-8, Dose [Inhibitor]: 40 UMOL IN 0.2 ML WATER 5 MIN PRIOR TO EACH CARCINOGEN DOSE (STUDY DURATION: 26 WK), Route [Inhibitor]: GAVAGE, Species: MOUSE, Strain/Sex: STRAIN-A/FEMALE, Target Tissue: Type of Lesion: FORESTOMACH: PAPILLOMA, Dose [Carcinogen]: 28 UMOL IN 0.1 ML WATER 2/WK FOR 10 WK, Promoter: NONE USED”, the “tumour outcome (control, treated, inhibition, significance)” value was 100%, 100%, 0%, not significant.

Regarding `CC(C)C[C@@H](CN1CSC[C@H]1C(N)=O)NC(=O)[C@H](Cc1cnc[nH]1)NC(=O)CNC(=O)[C@@H](NC(=O)[C@H](C)NC(=O)[C@H](Cc1c[nH]c2ccccc12)NC(=O)[C@H](CCC(N)=O)NC(=O)CCc1ccccc1)C(C)C` (Hydrocinnamoyl-QWAVGH-{Leuψ(CH2N)ThzNH2}), the “tumour outcome (control, treated, inhibition, significance)” value (Carcinogen: N-NITROSOBIS(2-OXOPROPYL)AMINE, 60599-38-4, Dose [Inhibitor]: 0, 20 UG/D FROM OSMOTIC PUMP FOR 2 MO, Route [Inhibitor]: SUBCUTANEOUS IMPLANT, Species: HAMSTER, Strain/Sex: SYRIAN/FEMALE, Target Tissue: Type of Lesion: PANCREAS: ADENOCARCINOMA, Promoter: NONE USED) is listed as 10/11 (91%), 7/11 (64%), 30%, not calculated and the “tumour outcome (control, treated, inhibition, significance)” value (Carcinogen: N-NITROSOBIS(2-OXOPROPYL)AMINE, 60599-38-4, Dose [Inhibitor]: 0, 30 UG/D FOR 2 MO, Route [Inhibitor]: SUBCUTANEOUS, Species: HAMSTER, Strain/Sex: SYRIAN/FEMALE, Target Tissue: Type of Lesion: PANCREAS: ADENOCARCINOMA, Promoter: NONE USED) is listed as 11/13 (85%), 12/13 (92%), -8%, not calculated.

For `Cn1c(=O)[nH]c2nc[nH]c2c1=O`, the “tumour outcome (control, treated, inhibition, significance)” value is, setting by setting: (Carcinogen: URETHANE, 51-79-6, Dose [Inhibitor]: 0.05 UMOL/G BW GIVEN AT 6 HR INTERVALS DURING THE PERIOD OF 0 TO 36 HR AFTER CARCINOGEN TREATMENT FOLLOWED BY 5 MO OBSER, Route [Inhibitor]: INTRAPERITONEAL, Species: MOUSE, Strain/Sex: ICR/FEMALE, Target Tissue: Type of Lesion: LUNG: PAPILLARY ADENOMA, Dose [Carcinogen]: 0.1 MG/G BW ONCE, Promoter: NONE USED) 31/59 (53%), 18/36 (50%), 6%, not significant; (Carcinogen: URETHANE, 51-79-6, Dose [Inhibitor]: 0.25 UMOL/G BW 1/D DURING THE PERIOD OF 5 TO 9 D AFTER CARCINOGEN TREATMENT FOLLOWED BY OBSERVATION PERIOD UNTIL END OF, Route [Inhibitor]: INTRAPERITONEAL, Species: MOUSE, Strain/Sex: ICR/FEMALE, Target Tissue: Type of Lesion: LUNG: PAPILLARY ADENOMA, Dose [Carcinogen]: 1 MG/G BW ONCE, Promoter: NONE USED) 49/53 (93%), 39/43 (91%), 2%, not significant.

For the compound `Oc1c(F)c(F)cc(F)c1F`, the “tumour outcome (control, treated, inhibition, significance)” value (Carcinogen: BENZO[A]PYRENE, 50-32-8, Dose [Inhibitor]: 0.03 MMOL/G OF DIET DAILY STARTING 7 D BEFORE AND CONTINUING THROUGH 3 D AFTER CARCINOGEN TREATMENT FOLLOWED BY OBSERVAT, Route [Inhibitor]: ORAL, Species: MOUSE, Strain/Sex: ICR/FEMALE, Target Tissue: Type of Lesion: FORESTOMACH: NEOPLASM, Dose [Carcinogen]: 1 MG IN 0.2 ML CORN OIL 2/WK FOR 4 WK, Promoter: NONE USED) was 100%, 95%, 5%, not significant and 97%, 84%, 13%, not significant.
